Assay results from ChEMBL document CHEMBL3217608, “Alkaloids from Rutaceae: activities of canthin-6-one alkaloids and synthetic analogues on glioblastoma stems cells” (Medchemcomm, 2012).
Calls of active or inactive are those of the source. The rule behind the calls is not given here.

Assays:
[1] = (§1) Antiproliferative against human TG1 cells at 30 to 300 uM after 24 hrs by WST-1 assay; type: functional
[2] = (§2) Antiproliferative against human TG10 cells at 300 uM after 24 hrs by WST-1 assay; type: functional
[3] = (§3) Antiproliferative against human TG1 cells at 300 uM after 24 hrs by WST-1 assay; type: functional
[4] = Antiproliferative against human NSC-24 cells at 300 uM after 24 hrs by WST-1 assay; type: cell-based; details: nsc-24, 24 h
[5] = target: RAC-alpha serine/threonine-protein kinase (Homo sapiens) (UniProt P31749); assay: Inhibition of AKT phosphorylation in human TG10 cells at 300 uM after 30 mins by Western blot analysis; type: cell-based
[6] = target: RAC-alpha serine/threonine-protein kinase (Homo sapiens) (UniProt P31749); assay: Inhibition of AKT phosphorylation in human TG1 cells at 300 uM after 30 mins by Western blot analysis; type: cell-based
[7] = target: RAC-alpha serine/threonine-protein kinase (Homo sapiens) (UniProt P31749); assay: Inhibition of AKT phosphorylation in human NSC-24 cells at 300 uM after 30 mins by Western blot analysis; type: cell-based
[8] = test system: TG1; assay: as §1; type: functional
[9] = Antiproliferative against human TG10 cells at 30 to 300 uM after 24 hrs by WST-1 assay; type: functional
[10] = Antiproliferative against human NSC-24 cells at 30 to 300 uM after 24 hrs by WST-1 assay; type: cell-based; details: nsc-24, 24 h
[11] = test system: TG10; assay: as §2; type: functional
[12] = test system: TG1; assay: as §3; type: functional
[13] = Antiproliferative against human TG1 cells after 24 hrs by WST-1 assay; type: functional
[14] = Antiproliferative against human TG10 cells after 24 hrs by WST-1 assay; type: functional

Sequence of RAC-alpha serine/threonine-protein kinase (Homo sapiens) (P31749 whole entry): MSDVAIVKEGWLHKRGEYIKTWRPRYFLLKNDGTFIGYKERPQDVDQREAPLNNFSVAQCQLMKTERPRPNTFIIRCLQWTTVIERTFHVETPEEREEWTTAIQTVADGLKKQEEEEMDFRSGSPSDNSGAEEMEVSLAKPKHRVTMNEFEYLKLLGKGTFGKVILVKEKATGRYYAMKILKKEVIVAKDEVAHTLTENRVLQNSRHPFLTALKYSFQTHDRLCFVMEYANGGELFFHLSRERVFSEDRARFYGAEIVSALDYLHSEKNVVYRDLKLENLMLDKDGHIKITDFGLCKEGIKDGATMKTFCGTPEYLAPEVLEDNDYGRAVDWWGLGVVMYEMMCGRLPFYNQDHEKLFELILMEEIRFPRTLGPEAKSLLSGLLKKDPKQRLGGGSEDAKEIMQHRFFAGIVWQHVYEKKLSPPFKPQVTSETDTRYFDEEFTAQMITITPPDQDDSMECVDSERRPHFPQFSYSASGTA

Structure (SMILES) | Activity [1] | inhibition [5] | inhibition [6] | Activity [8] | other results
O=c1ccc2nccc3c4cc(OCc5ccccc5)ccc4n1c23 | 40% | Active | Active |  | Activity [2]: 85%; Activity [3]: 40%; Activity [4]: Non-toxic; inhibition [7]: inactive
COc1ccc2c(c1)c1ccnc3ccc(=O)n2c31 |  |  |  | inactive | 
Nc1cc(=O)n2c3ccccc3c3ccnc1c32 |  |  |  | inactive | 
O=C1CCc2nccc3c4ccccc4n1c23 |  |  |  | inactive | 
O=c1c2ccccc2c2nccc3c4ccccc4n1c32 |  |  |  | inactive | 
O=c1ccc2c3c(cc[n+]2[O-])c2ccccc2n13 |  |  |  | inactive | 
COc1cc2nccc3c4ccccc4n(c1=O)c23 [5-METHOXYCANTHINONE] | 40% | Active | Active |  | Activity [9]: 35%; Activity [10]: 60%; inhibition [7]: Active
O=c1ccc2nccc3c4ccccc4n1c23 [CANTHIN-6-ONE] | 40% | Active | Active |  | Activity [9]: 35%; Activity [10]: 60%; Activity [11]: Active; Activity [12]: Active
Cn1nnc2c(C(N)=O)ncn2c1=O [TEMOZOLOMIDE] |  |  |  |  | Activity [13]: >80%; Activity [14]: >80%
